Reference: patent US20260015350A1, “AZAQUINAZOLINE PAN-KRAS INHIBITORS” (Mirati Therapeutics, Inc., priority 2022, published 2026)

Columns and labels:
[1] = target: T1, KRas^WT (Homo sapiens, UniProt P01116); assay: KRas binding assay (TR-FRET tracer displacement), KRas WT; details: TR-FRET tracer displacement, KRas WT
T1 construct: Biotinylated KRas (corresponding to amino acids 1-169, produced at Accelegan Inc.); biotin (biotinylated); purchased Accelegan Inc

[2] = target: T2, KRas^G12A (Homo sapiens, UniProt P01116, G12A); assay: KRas binding assay (TR-FRET tracer displacement), KRas G12A; details: TR-FRET tracer displacement, KRas G12A
T2 construct: Biotinylated KRas (corresponding to amino acids 1-169, produced at Accelegan Inc.); biotin (biotinylated); purchased Accelegan Inc

[3] = target: T3, KRas^G12C (Homo sapiens, UniProt P01116, G12C); assay: KRas binding assay (TR-FRET tracer displacement), KRas G12C; details: TR-FRET tracer displacement, KRas G12C
T3 construct: Biotinylated KRas (corresponding to amino acids 1-169, produced at Accelegan Inc.); biotin (biotinylated); purchased Accelegan Inc

[4] = target: T4, KRas^G12D (Homo sapiens, UniProt P01116, G12D); assay: KRas binding assay (TR-FRET tracer displacement), KRas G12D
T4 construct: Biotinylated KRas (corresponding to amino acids 1-169, produced at Accelegan Inc.); biotin (biotinylated); purchased Accelegan Inc

[5] = target: T5, KRas^G12R (Homo sapiens, UniProt P01116, G12R); assay: KRas binding assay (TR-FRET tracer displacement), KRas G12R
T5 construct: Biotinylated KRas (corresponding to amino acids 1-169, produced at Accelegan Inc.); biotin (biotinylated); purchased Accelegan Inc

[6] = target: T6, KRas^G12S (Homo sapiens, UniProt P01116, G12S); assay: KRas binding assay (TR-FRET tracer displacement), KRas G12S; details: TR-FRET tracer displacement, KRas G12S
T6 construct: Biotinylated KRas (corresponding to amino acids 1-169, produced at Accelegan Inc.); biotin (biotinylated); purchased Accelegan Inc

[7] = target: T7, KRas^G12V (Homo sapiens, UniProt P01116, G12V); assay: KRas binding assay (TR-FRET tracer displacement), KRas G12V
T7 construct: Biotinylated KRas (corresponding to amino acids 1-169, produced at Accelegan Inc.); biotin (biotinylated); purchased Accelegan Inc

[8] = target: T8, KRas^G13D (Homo sapiens, UniProt P01116, G13D); assay: KRas binding assay (TR-FRET tracer displacement), KRas G13D; details: TR-FRET tracer displacement, KRas G13D
T8 construct: Biotinylated KRas (corresponding to amino acids 1-169, produced at Accelegan Inc.); biotin (biotinylated); purchased Accelegan Inc

[9] = target: T9, KRas^Q61H (Homo sapiens, UniProt P01116, Q61H); assay: KRas binding assay (TR-FRET tracer displacement), KRas Q61H; details: TR-FRET tracer displacement, KRas Q61H
T9 construct: Biotinylated KRas (corresponding to amino acids 1-169, produced at Accelegan Inc.); biotin (biotinylated); purchased Accelegan Inc
T9 sequence (P01116 1-169 isoform P01116-2 Q61H): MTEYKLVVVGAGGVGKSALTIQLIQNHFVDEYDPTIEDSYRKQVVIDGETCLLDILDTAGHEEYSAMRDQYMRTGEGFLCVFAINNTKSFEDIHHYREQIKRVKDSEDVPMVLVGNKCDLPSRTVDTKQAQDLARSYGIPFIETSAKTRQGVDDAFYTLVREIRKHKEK

T1 sequence (P01116 1-169 isoform P01116-2): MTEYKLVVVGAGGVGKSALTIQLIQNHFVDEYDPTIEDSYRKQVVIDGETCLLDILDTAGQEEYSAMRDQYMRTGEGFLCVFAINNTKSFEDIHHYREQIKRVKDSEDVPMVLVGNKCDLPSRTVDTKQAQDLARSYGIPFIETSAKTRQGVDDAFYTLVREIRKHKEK
T4 sequence (P01116 1-169 isoform P01116-2 G12D): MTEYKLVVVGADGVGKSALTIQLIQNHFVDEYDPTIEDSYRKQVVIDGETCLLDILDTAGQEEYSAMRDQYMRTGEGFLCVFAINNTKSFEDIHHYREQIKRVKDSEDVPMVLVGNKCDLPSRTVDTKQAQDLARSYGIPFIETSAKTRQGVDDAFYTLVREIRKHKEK
T2 sequence (P01116 1-169 isoform P01116-2 G12A): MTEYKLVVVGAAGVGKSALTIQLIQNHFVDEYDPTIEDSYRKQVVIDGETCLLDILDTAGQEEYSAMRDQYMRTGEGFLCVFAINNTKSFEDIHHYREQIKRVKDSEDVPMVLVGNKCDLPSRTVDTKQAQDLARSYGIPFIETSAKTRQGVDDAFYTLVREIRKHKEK
T8 sequence (P01116 1-169 isoform P01116-2 G13D): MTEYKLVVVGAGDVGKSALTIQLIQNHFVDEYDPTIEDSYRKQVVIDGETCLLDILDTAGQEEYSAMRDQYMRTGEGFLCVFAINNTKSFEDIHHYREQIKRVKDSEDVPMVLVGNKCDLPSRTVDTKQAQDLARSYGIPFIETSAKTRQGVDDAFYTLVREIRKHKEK
T6 sequence (P01116 1-169 isoform P01116-2 G12S): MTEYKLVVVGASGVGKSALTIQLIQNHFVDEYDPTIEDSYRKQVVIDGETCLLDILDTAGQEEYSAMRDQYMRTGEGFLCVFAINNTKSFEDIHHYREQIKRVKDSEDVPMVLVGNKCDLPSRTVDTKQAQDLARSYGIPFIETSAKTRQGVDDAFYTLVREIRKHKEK
T7 sequence (P01116 1-169 isoform P01116-2 G12V): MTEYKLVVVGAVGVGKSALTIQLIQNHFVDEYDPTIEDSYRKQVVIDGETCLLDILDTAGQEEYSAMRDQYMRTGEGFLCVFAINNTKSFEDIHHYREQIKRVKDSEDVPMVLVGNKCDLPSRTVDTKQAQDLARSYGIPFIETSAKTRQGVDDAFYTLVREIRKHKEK
T5 sequence (P01116 1-169 isoform P01116-2 G12R): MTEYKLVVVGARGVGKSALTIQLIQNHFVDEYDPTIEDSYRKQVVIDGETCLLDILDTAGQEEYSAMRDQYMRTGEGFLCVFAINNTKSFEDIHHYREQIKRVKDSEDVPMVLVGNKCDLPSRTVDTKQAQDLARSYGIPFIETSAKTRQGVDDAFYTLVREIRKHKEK
T3 sequence (P01116 1-169 isoform P01116-2 G12C): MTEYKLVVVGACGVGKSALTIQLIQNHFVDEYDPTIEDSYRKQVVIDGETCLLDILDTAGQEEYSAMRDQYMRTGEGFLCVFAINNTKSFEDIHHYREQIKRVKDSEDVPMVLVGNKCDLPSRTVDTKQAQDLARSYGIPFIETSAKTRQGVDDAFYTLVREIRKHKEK

Compound: O=C1NC(=O)C2CC(c3nc(OCC45CCCN4CCC5)nc4c(F)c(-c5cccc6cccc(F)c56)ncc34)=CC12 (stereo not drawn) [Example 525, 5-(8-fluoro-7-(8-fluoronaphthalen-1-yl)-2-((tetrahydro-1H-pyrrolizin-7a(5H)-yl)methoxy)pyrido[4,3-d]pyrimidin-4-yl)-4,6a-dihydrocyclopenta[c]pyrrole-1,3(2H,3aH)-dione]
- IC50 [1]: > 100000 nM
- IC50 [2]: 93800 nM
- IC50 [3]: > 100000 nM
- IC50 [4]: 50700 nM
- IC50 [5]: 45400 nM
- IC50 [6]: > 100000 nM
- IC50 [7]: 55900 nM
- IC50 [8]: > 100000 nM
- IC50 [9]: > 100000 nM

Compound: Cc1cc2[nH]nnc2c(-c2ncc3c(N4CCCn5nc(C(=O)N(C)C)cc5C4)nc(OCC45CCCN4CCC5)nc3c2F)c1C [Example 839, 5-(7-(5,6-dimethyl-1H-benzo[d][1,2,3]triazol-4-yl)-8-fluoro-2-((tetrahydro-1H-pyrrolizin-7a(5H)-yl)methoxy)pyrido[4,3-d]pyrimidin-4-yl)-N,N-dimethyl-5,6,7,8-tetrahydro-4H-pyrazolo[1,5-a][1,4]diazepine-2-carboxamide]
- IC50 [1]: 3780 nM
- IC50 [2]: 2380 nM
- IC50 [3]: 1630 nM
- IC50 [4]: 153 nM
- IC50 [5]: 2910 nM
- IC50 [6]: 1260 nM
- IC50 [7]: 743 nM
- IC50 [8]: 4060 nM
- IC50 [9]: 3810 nM

Compound: Cc1cc2sncc2c(-c2ncc3c(N4CCC[C@@](C)(O)C4)nc(OCC45CCCN4CCC5)nc3c2F)c1C [Example 820, (3R)-1-(7-(5,6-dimethylbenzo[d]isothiazol-4-yl)-8-fluoro-2-((tetrahydro-1H-pyrrolizin-7a(5H)-yl)methoxy)pyrido[4,3-d]pyrimidin-4-yl)-3-methylpiperidin-3-ol]
- IC50 [1]: 1400 nM
- IC50 [2]: 634 nM
- IC50 [3]: 591 nM
- IC50 [4]: 22900 nM
- IC50 [5]: 76200 nM
- IC50 [6]: 1510 nM
- IC50 [7]: 52000 nM
- IC50 [8]: 470 nM
- IC50 [9]: 2130 nM

Compound: Cc1cc2[nH]nnc2c(-c2ncc3c(N4CCCC5(C4)NC(=O)NC5=O)nc(OCC45CCCN4CCC5)nc3c2F)c1C (stereo not drawn) [Example 823, 7-(7-(5,6-dimethyl-1H-benzo[d][1,2,3]triazol-4-yl)-8-fluoro-2-((tetrahydro-1H-pyrrolizin-7a(5H)-yl)methoxy)pyrido[4,3-d]pyrimidin-4-yl)-1,3,7-triazaspiro[4.5]decane-2,4-dione]
- IC50 [1]: 1420 nM
- IC50 [2]: 1430 nM
- IC50 [3]: 1300 nM
- IC50 [4]: 2220 nM
- IC50 [5]: 1380 nM
- IC50 [6]: 1370 nM
- IC50 [7]: 922 nM
- IC50 [8]: 1270 nM
- IC50 [9]: 1390 nM

Compound: Cc1cc2[nH]nnc2c(-c2ncc3c(N4C[C@@H]5C[C@H](C4)[C@H](O)C5)nc(OCC45CCCN4CCC5)nc3c2F)c1C [Example 832, (1R,5R,6R)-3-(7-(5,6-dimethyl-1H-benzo[d][1,2,3]triazol-4-yl)-8-fluoro-2-((tetrahydro-1H-pyrrolizin-7a(5H)-yl)methoxy)pyrido[4,3-d]pyrimidin-4-yl)-3-azabicyclo[3.2.1]octan-6-ol]
- IC50 [1]: 4590 nM
- IC50 [2]: 3770 nM
- IC50 [3]: 3200 nM
- IC50 [4]: 17100 nM
- IC50 [5]: 6410 nM
- IC50 [6]: 2940 nM
- IC50 [7]: 4550 nM
- IC50 [8]: 3880 nM
- IC50 [9]: 4610 nM

Compound: Cc1cc2[nH]ccc2c(-c2ncc3c(N4CCC[C@@](C)(O)C4)nc(OCC45CCCN4CCC5)nc3c2F)c1C [Example 871, (3R)-1-(7-(5,6-dimethyl-1H-indol-4-yl)-8-fluoro-2-((tetrahydro-1H-pyrrolizin-7a(5H)-yl)methoxy)pyrido[4,3-d]pyrimidin-4-yl)-3-methylpiperidin-3-ol]
- IC50 [1]: 3420 nM
- IC50 [2]: 3690 nM
- IC50 [3]: 3820 nM
- IC50 [4]: 2670 nM
- IC50 [5]: 8950 nM
- IC50 [6]: 4440 nM
- IC50 [7]: 4410 nM
- IC50 [8]: 2720 nM
- IC50 [9]: 4530 nM

Compound: Cc1cc2[nH]nnc2c(-c2ncc3c(N4CCCC5(CNC(=O)N5)C4)nc(OCC45CCCN4CCC5)nc3c2F)c1C (stereo not drawn) [Example 856, 7-(7-(5,6-dimethyl-1H-benzo[d][1,2,3]triazol-4-yl)-8-fluoro-2-((tetrahydro-1H-pyrrolizin-7a(5H)-yl)methoxy)pyrido[4,3-d]pyrimidin-4-yl)-1,3,7-triazaspiro[4.5]decan-2-one]
- IC50 [1]: 2820 nM
- IC50 [2]: 2230 nM
- IC50 [3]: 2060 nM
- IC50 [4]: 1190 nM
- IC50 [5]: 4270 nM
- IC50 [6]: 2510 nM
- IC50 [7]: 2200 nM
- IC50 [8]: 2470 nM
- IC50 [9]: 2830 nM

Compound: Cc1cc2[nH]nnc2c(-c2ncc3c(N4CC5C(=O)NC(=O)C5C4)nc(OCC45CCCN4CCC5)nc3c2F)c1C (stereo not drawn) [Example 833, 5-(7-(5,6-dimethyl-1H-benzo[d][1,2,3]triazol-4-yl)-8-fluoro-2-((tetrahydro-1H-pyrrolizin-7a(5H)-yl)methoxy)pyrido[4,3-d]pyrimidin-4-yl)tetrahydropyrrolo[3,4-c]pyrrole-1,3(2H,3aH)-dione]
- IC50 [1]: 3830 nM
- IC50 [2]: 5130 nM
- IC50 [3]: 4490 nM
- IC50 [4]: 1080 nM
- IC50 [5]: 9160 nM
- IC50 [6]: 1860 nM
- IC50 [7]: 3540 nM
- IC50 [8]: 2820 nM
- IC50 [9]: 3670 nM

Compound: Cc1cc2[nH]cnc2c(-c2ncc3c(N4CCC[C@@](C)(O)C4)nc(OCC45CCCN4CCC5)nc3c2F)c1C [Example 888, (3R)-1-(7-(5,6-dimethyl-1H-benzo[d]imidazol-4-yl)-8-fluoro-2-((tetrahydro-1H-pyrrolizin-7a(5H)-yl)methoxy)pyrido[4,3-d]pyrimidin-4-yl)-3-methylpiperidin-3-ol]
- IC50 [1]: 579 nM
- IC50 [2]: 375 nM
- IC50 [3]: 199 nM
- IC50 [4]: 40700 nM
- IC50 [5]: 62300 nM
- IC50 [6]: 201 nM
- IC50 [7]: 58300 nM
- IC50 [8]: 567 nM
- IC50 [9]: 539 nM

Compound: Cc1cc2[nH]nnc2c(-c2ncc3c(N4CCOC[C@@](C)(O)C4)nc(OCC45CCCN4CCC5)nc3c2F)c1C [Example 822, (6S)-4-(7-(5,6-dimethyl-1H-benzo[d][1,2,3]triazol-4-yl)-8-fluoro-2-((tetrahydro-1H-pyrrolizin-7a(5H)-yl)methoxy)pyrido[4,3-d]pyrimidin-4-yl)-6-methyl-1,4-oxazepan-6-ol]
- IC50 [1]: 5420 nM
- IC50 [2]: 4980 nM
- IC50 [3]: 4080 nM
- IC50 [4]: 2180 nM
- IC50 [5]: 9670 nM
- IC50 [6]: 4660 nM
- IC50 [7]: 3430 nM
- IC50 [8]: 5410 nM
- IC50 [9]: 5660 nM

Compound: Cc1cc2[nH]nnc2c(-c2ncc3c(N4CCC[C@@](C)(O)C4)nc(OC[C@@]45CCCN4C[C@H](F)C5)nc3c2F)c1C [Example 821, (3R)-1-(7-(5,6-dimethyl-1H-benzo[d][1,2,3]triazol-4-yl)-8-fluoro-2-(((2R,7aS)-2-fluorotetrahydro-1H-pyrrolizin-7a(5H)-yl)methoxy)pyrido[4,3-d]pyrimidin-4-yl)-3-methylpiperidin-3-ol]
- IC50 [1]: 151 nM
- IC50 [2]: 137 nM
- IC50 [3]: 146 nM
- IC50 [4]: 3890 nM
- IC50 [5]: 12000 nM
- IC50 [6]: 121 nM
- IC50 [7]: 5850 nM
- IC50 [8]: 146 nM
- IC50 [9]: 196 nM
